# Results published in the supplement of paper PMC10307832.
# Legend:
# Assay in all cases: relative viability (nuclei count vs DMSO), 5 days (fraction); higher = more cells survive
# HCC-827 = tested on: HCC-827
# In short: (§1)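 The day after seeding in 1536-well plates, lung cancer cell lines were treated by pin tool with a single drug, or with a fixed anchor-drug dose together with five library-drug doses (not always all listed) in √10 steps. After 5 days, a combined fix-and-stain solution (final 0.05% Triton X-100, 1% formaldehyde, 1 ug/ml Hoechst) was added. Nuclei counted on 4× images gave relative viability as treated counts over vehicle counts, reported as the median of duplicate plates.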
# NCI-H2170 = tested on: NCI-H2170
# In short: as §1
# NCI-H522 = tested on: NCI-H522
# In short: as §1
# BEN = tested on: BEN
# In short: as §1
# LXF-289 = tested on: LXF-289
# In short: as §1
# NCI-H1563 = tested on: NCI-H1563
# In short: as §1
# HARA = tested on: HARA
# In short: as §1
# NCI-H727 = tested on: NCI-H727
# In short: as §1
# COR-L 105 = tested on: COR-L 105
# In short: as §1
# PC-3 [JPC-3] = tested on: PC-3 [JPC-3]
# In short: as §1
# HOP-62 = tested on: HOP-62
# In short: as §1
# LCLC-97TM1 = tested on: LCLC-97TM1
# In short: as §1
# NCI-H2009 = tested on: NCI-H2009
# In short: as §1
# NCI-H1993 = tested on: NCI-H1993
# In short: as §1
# LC-2-ad = tested on: LC-2-ad
# In short: as §1
# NCI-H2087 = tested on: NCI-H2087
# In short: as §1
# PC-14 = tested on: PC-14
# In short: as §1
# HCC-15 = tested on: HCC-15
# In short: as §1
# HCC-366 = tested on: HCC-366
# In short: as §1
# LU99A = tested on: LU99A
# In short: as §1
# COR-L23 = tested on: COR-L23
# In short: as §1
# NCI-H2126 = tested on: NCI-H2126
# In short: as §1
# SK-MES-1 = tested on: SK-MES-1
# In short: as §1
# CAL-12T = tested on: CAL-12T
# In short: as §1
smiles,measurement,setting,value
CCCCCCCCCCCC1=C(O)C(=O)C=C(O)C1=O [Embelin] + Cc1nc(Nc2ncc(C(=O)Nc3c(C)cccc3Cl)s2)cc(N2CCN(CCO)CC2)n1 [Dasatinib] (partner 0.075 µM),relative viability,HCC-827; first compound 0.08 µM,0.333
same,relative viability,HCC-827; first compound 0.8 µM,0.406
same,relative viability,HCC-827; first compound 2.53 µM,0.404
same,relative viability,HCC-827; first compound 8 µM,0.321
same,relative viability,NCI-H2170; first compound 0.08 µM,0.649
same,relative viability,NCI-H2170; first compound 0.8 µM,0.806
same,relative viability,NCI-H2170; first compound 2.53 µM,0.694
same,relative viability,NCI-H2170; first compound 8 µM,0.533
same,relative viability,NCI-H522; first compound 0.08 µM,0.849
same,relative viability,NCI-H522; first compound 0.8 µM,0.914
same,relative viability,NCI-H522; first compound 2.53 µM,1.02
same,relative viability,NCI-H522; first compound 8 µM,0.859
same,relative viability,BEN; first compound 0.08 µM,0.355
same,relative viability,BEN; first compound 0.8 µM,0.359
same,relative viability,BEN; first compound 2.53 µM,0.259
same,relative viability,BEN; first compound 8 µM,0.362
same,relative viability,LXF-289; first compound 0.08 µM,0.212
same,relative viability,LXF-289; first compound 0.8 µM,0.282
same,relative viability,LXF-289; first compound 2.53 µM,0.163
same,relative viability,LXF-289; first compound 8 µM,0.222
same,relative viability,NCI-H1563; first compound 0.08 µM,0.475
same,relative viability,NCI-H1563; first compound 0.8 µM,0.447
same,relative viability,NCI-H1563; first compound 2.53 µM,0.405
same,relative viability,NCI-H1563; first compound 8 µM,0.387
same,relative viability,HARA; first compound 0.08 µM,0.25
same,relative viability,HARA; first compound 0.8 µM,0.329
same,relative viability,HARA; first compound 2.53 µM,0.279
same,relative viability,HARA; first compound 8 µM,0.272
same,relative viability,NCI-H727; first compound 0.08 µM,0.318
same,relative viability,NCI-H727; first compound 0.8 µM,0.411
same,relative viability,NCI-H727; first compound 2.53 µM,0.492
same,relative viability,NCI-H727; first compound 8 µM,0.375
same,relative viability,COR-L 105; first compound 0.08 µM,0.339
same,relative viability,COR-L 105; first compound 0.8 µM,0.544
same,relative viability,COR-L 105; first compound 2.53 µM,0.355
same,relative viability,COR-L 105; first compound 8 µM,0.33
same,relative viability,PC-3 [JPC-3]; first compound 0.08 µM,1.02
same,relative viability,PC-3 [JPC-3]; first compound 0.8 µM,1.05
same,relative viability,PC-3 [JPC-3]; first compound 2.53 µM,1.12
same,relative viability,PC-3 [JPC-3]; first compound 8 µM,0.966
same,relative viability,HOP-62; first compound 0.08 µM,0.66
same,relative viability,HOP-62; first compound 0.8 µM,0.776
same,relative viability,HOP-62; first compound 2.53 µM,0.68
same,relative viability,HOP-62; first compound 8 µM,0.654
same,relative viability,LCLC-97TM1; first compound 0.08 µM,1.05
same,relative viability,LCLC-97TM1; first compound 0.8 µM,0.668
same,relative viability,LCLC-97TM1; first compound 2.53 µM,0.916
same,relative viability,LCLC-97TM1; first compound 8 µM,0.912
same,relative viability,NCI-H2009; first compound 0.08 µM,0.342
same,relative viability,NCI-H2009; first compound 0.8 µM,0.487
same,relative viability,NCI-H2009; first compound 2.53 µM,0.243
same,relative viability,NCI-H2009; first compound 8 µM,0.251
same,relative viability,NCI-H1993; first compound 0.08 µM,0.641
same,relative viability,NCI-H1993; first compound 0.8 µM,0.602
same,relative viability,NCI-H1993; first compound 2.53 µM,0.535
same,relative viability,NCI-H1993; first compound 8 µM,0.509
same,relative viability,LC-2-ad; first compound 0.08 µM,0.596
same,relative viability,LC-2-ad; first compound 0.8 µM,0.837
same,relative viability,LC-2-ad; first compound 2.53 µM,0.823
same,relative viability,LC-2-ad; first compound 8 µM,0.412
same,relative viability,NCI-H2087; first compound 0.08 µM,0.877
same,relative viability,NCI-H2087; first compound 0.8 µM,1.19
same,relative viability,NCI-H2087; first compound 2.53 µM,1.06
same,relative viability,NCI-H2087; first compound 8 µM,0.913
same,relative viability,PC-14; first compound 0.08 µM,0.257
same,relative viability,PC-14; first compound 0.8 µM,0.396
same,relative viability,PC-14; first compound 2.53 µM,0.246
same,relative viability,PC-14; first compound 8 µM,0.315
same,relative viability,HCC-15; first compound 0.08 µM,0.592
same,relative viability,HCC-15; first compound 0.8 µM,0.628
same,relative viability,HCC-15; first compound 2.53 µM,0.711
same,relative viability,HCC-15; first compound 8 µM,0.582
same,relative viability,HCC-366; first compound 0.08 µM,0.593
same,relative viability,HCC-366; first compound 0.8 µM,0.688
same,relative viability,HCC-366; first compound 2.53 µM,0.984
same,relative viability,HCC-366; first compound 8 µM,0.557
same,relative viability,LU99A; first compound 0.08 µM,0.572
same,relative viability,LU99A; first compound 0.8 µM,0.759
same,relative viability,LU99A; first compound 2.53 µM,0.643
same,relative viability,LU99A; first compound 8 µM,0.515
same,relative viability,COR-L23; first compound 0.08 µM,0.486
same,relative viability,COR-L23; first compound 0.8 µM,0.55
same,relative viability,COR-L23; first compound 2.53 µM,0.458
same,relative viability,COR-L23; first compound 8 µM,0.562
same,relative viability,NCI-H2126; first compound 0.08 µM,0.615
same,relative viability,NCI-H2126; first compound 0.8 µM,0.684
same,relative viability,NCI-H2126; first compound 2.53 µM,0.714
same,relative viability,NCI-H2126; first compound 8 µM,0.502
same,relative viability,SK-MES-1; first compound 0.08 µM,0.372
same,relative viability,SK-MES-1; first compound 0.8 µM,0.466
same,relative viability,SK-MES-1; first compound 2.53 µM,0.321
same,relative viability,SK-MES-1; first compound 8 µM,0.361
same,relative viability,CAL-12T; first compound 0.08 µM,0.414
same,relative viability,CAL-12T; first compound 0.8 µM,0.522
same,relative viability,CAL-12T; first compound 2.53 µM,0.481
same,relative viability,CAL-12T; first compound 8 µM,0.539
